Assay: Reference Example 1: bulk powder left in air, residual ratio
Assay type: physicochemical
Settings: 40° C. and 75% RH in the air, 1 month
Experimental: A bulk powder of Compound A and sodium ascorbate were respectively left to stand for 1 month at 40° C. and 75% RH in the air, and then residual ratios thereof were measured. As a result, the residual ratio of Compound A was 89.7% (W/W), and the residual ratio of sodium ascorbate was 99.0% (W/W). Quantification of Compound A was carried out by a HPLC method under the following conditions. Solvent: acetonitrile Measurement wavelength: 287 nm Column: CHIRALCEL OJ-R 4.6 mm×150 mm (manufactured by Daicel Chemical Industries, Ltd.) Mobile phase: mixed solution of acetonitrile/10 mM aqueous ammonium acetate solution (16:9) Oven temperature: around 25° C. Quantification of sodium ascorbate was carried out by an iodine titration technique (solvent: metaphosphoric acid solution (1→50), indicator: starch test solution).

residual ratio	Structure (SMILES)
89.7 % (W/W)	COc1cc2c(cc1OC)CN(c1c(C)c(C)c3c(c1C)[C@@H](c1ccc(C)cc1)C(C)(C)O3)C2 [Compound A, (R)-5,6-dimethoxy-2-[2,2,4,6,7-pentamethyl-3-(4-methylphenyl)-2,3-dihydro-1-benzofuran-5-yl]isoindoline]
99.0 % (W/W)	O=C1O[C@H]([C@@H](O)CO)C([O-])=C1O.[Na+] [sodium ascorbate]

From US20090030064A1, “Sugar-coated preparation” (Takeda Pharmaceutical Company Limited, priority 2005, published 2009)
